Laboratory results published in patent US20240189495A1, “METHODS OF PREPARING AN EXTRACORPOREAL CIRCUIT FOR ANTICOAGULATION” (Lawell Therapeutics, LLC, priority 2021, published 2024).

Tests used:
Format in all cases: physicochemical
[1] = Adsorption of nafamostat to circuit tubing, in vitro dialysis circuit without filter, HPLC; settings: for Percent of Nafamostat Remaining as a Ratio of the Starting Concentration at Time 0: tubing only, no filter
Method: A dialysis apparatus was established as described in FIG. 5 without using a filter. An experiment was conducted to determine the adsorption characteristics to the tubing. The solution was circulated through the tubing at typical CRRT flow rates of 100-300 milliliters per minute (FIG. 5). The concentration of nafamostat was measured via HPLC at 0, 5, 10 and 20 minutes. Only one reservoir of nafamostat was used. Therefore, any change in concentration represents adsorption since the molecule cannot escape the system. […] Therefore, any change in concentration can be attributed to adsorption onto the filter membrane tested.

[2] = Filter membrane adsorption in in vitro dialysis circuit, HPLC; settings: for Quantity (% nafamostat free base) remaining after the initiation of priming: 500 mL; for Quantity (mcg nafamostat free base) adsorbed over time (minutes), Avg.: average of 5, 10, 20 min; for Time in which the change in concentration is complete: regardless the solution concentration
Method: A dialysis apparatus was established as described in FIG. 5 using a PS, PES, PAES, or a PAN filter. A series of experiments was conducted using various filter membranes in an in vitro model to determine the filter membrane adsorption characteristics. A solution of nafamostat was circulated through the blood and dialysate sides of the filter at typical CRRT flow rates of 100-300 milliliters per minute. The concentration of nafamostat was measured via HPLC at 0, 5, 10 and 20 minutes. Only one reservoir of nafamostat was used. Therefore, any change in concentration represents adsorption since the molecule cannot escape the system. The following filters were used: Polyethersulfone (PES) from […], part number CAR-505; Polyarylethersulfone (PAES) from Baxter, part number HF1000; Polyacrylonitrile (PAN) from Baxter, part number M100; Polysulfone (PS) from Baxter, part number F50; no filter, tubing only from Baxter, part number M100. Baxter tubing was used for all filter tests.

[3] = Saturation of polyacrylonitrile filter by repeated replenishment of nafamostat solution (Example 8)
Method: To determine if a polyacrylonitrile filter can be saturated, and if so, what quantity of nafamostat would be required, an in vitro experiment was conducted wherein 632 milligrams of nafamostat were passed through the filter in the same manner as described in FIG. 5 for 20 minutes. Then the solution was replenished with an additional 632 milligrams (solution B-1), which was circulated for an additional 20 minutes, followed by replenishment with an additional 632 milligrams (solution B-2), which was circulated for an additional 20 minutes and finally replenished with an additional 379 milligrams. The total quantity of 2275 milligrams represents a three-day consumption of nafamostat at the maximum dose of 31.2 mg/h. As one can see from Table 4, nafamostat continues to adsorb to the polyacrylonitrile filter even after the entire quantity of 2275 milligrams has been delivered.

N=C(N)c1ccc2cc(OC(=O)c3ccc(N=C(N)N)cc3)ccc2c1 [Nafamostat, nafamostat]
Percent of Nafamostat Remaining as a Ratio of the Starting Concentration at Time 0 ([1]; 0 min): 100%
Percent of Nafamostat Remaining as a Ratio of the Starting Concentration at Time 0 ([1]; 5 min): 100%
Percent of Nafamostat Remaining as a Ratio of the Starting Concentration at Time 0 ([1]; 10 min): 101%
Percent of Nafamostat Remaining as a Ratio of the Starting Concentration at Time 0 ([1]; 20 min): 100%
Adsorption onto the tubing ([1]; tubing used for all tests): does not adsorb substantially
Quantity (% nafamostat free base) remaining after the initiation of priming ([2]; Example 2, PS F50, 158 mcg/mL, 0 min): 100%
Quantity (% nafamostat free base) remaining after the initiation of priming ([2]; Example 2, PS F50, 158 mcg/mL, 5 min): 96.7%
Quantity (% nafamostat free base) remaining after the initiation of priming ([2]; Example 2, PS F50, 158 mcg/mL, 10 min): 96.8%
Quantity (% nafamostat free base) remaining after the initiation of priming ([2]; Example 2, PS F50, 158 mcg/mL, 20 min): 97.2%
Quantity (mcg nafamostat free base) adsorbed over time (minutes) ([2]; Example 2, PS F50, prime quantity 79,000 mcg, 5 min): 2,620 mcg
Quantity (mcg nafamostat free base) adsorbed over time (minutes) ([2]; Example 2, PS F50, prime quantity 79,000 mcg, 10 min): 2,559 mcg
Quantity (mcg nafamostat free base) adsorbed over time (minutes) ([2]; Example 2, PS F50, prime quantity 79,000 mcg, 20 min): 2,222 mcg
Quantity (mcg nafamostat free base) adsorbed over time (minutes), Avg. ([2]; Example 2, PS F50, prime quantity 79,000 mcg): 2,467 mcg
Quantity (% nafamostat free base) remaining after the initiation of priming ([2]; Example 3, PES CAR-505, 158 mcg/mL, 0 min): 100%
Quantity (% nafamostat free base) remaining after the initiation of priming ([2]; Example 3, PES CAR-505, 158 mcg/mL, 5 min): 95.6%
Quantity (% nafamostat free base) remaining after the initiation of priming ([2]; Example 3, PES CAR-505, 158 mcg/mL, 10 min): 95.6%
Quantity (% nafamostat free base) remaining after the initiation of priming ([2]; Example 3, PES CAR-505, 158 mcg/mL, 20 min): 95.6%
Quantity (mcg nafamostat free base) adsorbed over time (minutes) ([2]; Example 3, PES CAR-505, prime quantity 79,000 mcg, 5 min): 3,555 mcg
Quantity (mcg nafamostat free base) adsorbed over time (minutes) ([2]; Example 3, PES CAR-505, prime quantity 79,000 mcg, 10 min): 3,555 mcg
Quantity (mcg nafamostat free base) adsorbed over time (minutes) ([2]; Example 3, PES CAR-505, prime quantity 79,000 mcg, 20 min): 3,555 mcg
Quantity (mcg nafamostat free base) adsorbed over time (minutes), Avg. ([2]; Example 3, PES CAR-505, prime quantity 79,000 mcg): 3,555 mcg
Quantity (% nafamostat free base) remaining after the initiation of priming ([2]; Example 4, PAES HF1000, 158 mcg/mL, 0 min): 100%
Quantity (% nafamostat free base) remaining after the initiation of priming ([2]; Example 4, PAES HF1000, 158 mcg/mL, 5 min): 96.9%
Quantity (% nafamostat free base) remaining after the initiation of priming ([2]; Example 4, PAES HF1000, 158 mcg/mL, 10 min): 97.2%
Quantity (% nafamostat free base) remaining after the initiation of priming ([2]; Example 4, PAES HF1000, 158 mcg/mL, 20 min): 97.1%
Quantity (mcg nafamostat free base) adsorbed over time (minutes) ([2]; Example 4, PAES HF1000, prime quantity 79,000 mcg, 5 min): 2,446 mcg
Quantity (mcg nafamostat free base) adsorbed over time (minutes) ([2]; Example 4, PAES HF1000, prime quantity 79,000 mcg, 10 min): 2,184 mcg
Quantity (mcg nafamostat free base) adsorbed over time (minutes) ([2]; Example 4, PAES HF1000, prime quantity 79,000 mcg, 20 min): 2,261 mcg
Quantity (mcg nafamostat free base) adsorbed over time (minutes), Avg. ([2]; Example 4, PAES HF1000, prime quantity 79,000 mcg): 2,297 mcg
Quantity (% nafamostat free base) remaining after the initiation of priming ([2]; Example 5, PAN M100, 158 mcg/mL, 0 min): 98.7%
Quantity (% nafamostat free base) remaining after the initiation of priming ([2]; Example 5, PAN M100, 158 mcg/mL, 5 min): 20.5%
Quantity (% nafamostat free base) remaining after the initiation of priming ([2]; Example 5, PAN M100, 158 mcg/mL, 10 min): 4.3%
Quantity (% nafamostat free base) remaining after the initiation of priming ([2]; Example 5, PAN M100, 158 mcg/mL, 20 min): 0.3%
Quantity (mcg nafamostat free base) adsorbed over time (minutes) ([2]; Example 5, PAN M100, prime quantity 79,000 mcg, 5 min): 61,770 mcg
Quantity (mcg nafamostat free base) adsorbed over time (minutes) ([2]; Example 5, PAN M100, prime quantity 79,000 mcg, 10 min): 74,594 mcg
Quantity (mcg nafamostat free base) adsorbed over time (minutes) ([2]; Example 5, PAN M100, prime quantity 79,000 mcg, 20 min): 77,732 mcg
Quantity (mcg nafamostat free base) adsorbed over time (minutes), Avg. ([2]; Example 5, PAN M100, prime quantity 79,000 mcg): 71,365 mcg
Quantity (% nafamostat free base) remaining after the initiation of priming ([2]; Example 6, PAN M100, 316 mcg/mL, 0 min): 99.5%
Quantity (% nafamostat free base) remaining after the initiation of priming ([2]; Example 6, PAN M100, 316 mcg/mL, 5 min): 20.4%
Quantity (% nafamostat free base) remaining after the initiation of priming ([2]; Example 6, PAN M100, 316 mcg/mL, 10 min): 4.3%
Quantity (% nafamostat free base) remaining after the initiation of priming ([2]; Example 6, PAN M100, 316 mcg/mL, 20 min): 0.4%
Quantity (mcg nafamostat free base) adsorbed over time (minutes) ([2]; Example 6, PAN M100, prime quantity 158,000 mcg, 5 min): 124,946 mcg
Quantity (mcg nafamostat free base) adsorbed over time (minutes) ([2]; Example 6, PAN M100, prime quantity 158,000 mcg, 10 min): 150,288 mcg
Quantity (mcg nafamostat free base) adsorbed over time (minutes) ([2]; Example 6, PAN M100, prime quantity 158,000 mcg, 20 min): 156,502 mcg
Quantity (mcg nafamostat free base) adsorbed over time (minutes), Avg. ([2]; Example 6, PAN M100, prime quantity 158,000 mcg): 143,912 mcg
Quantity (% nafamostat free base) remaining after the initiation of priming ([2]; Example 7, PAN M100, 632 mcg/mL, 0 min): 99.1%
Quantity (% nafamostat free base) remaining after the initiation of priming ([2]; Example 7, PAN M100, 632 mcg/mL, 5 min): 17.4%
Quantity (% nafamostat free base) remaining after the initiation of priming ([2]; Example 7, PAN M100, 632 mcg/mL, 10 min): 2.7%
Quantity (% nafamostat free base) remaining after the initiation of priming ([2]; Example 7, PAN M100, 632 mcg/mL, 20 min): 0.04%
Quantity (mcg nafamostat free base) adsorbed over time (minutes) ([2]; Example 7, PAN M100, prime quantity 316,000 mcg, 5 min): 258,314 mcg
Quantity (mcg nafamostat free base) adsorbed over time (minutes) ([2]; Example 7, PAN M100, prime quantity 316,000 mcg, 10 min): 304,629 mcg
Quantity (mcg nafamostat free base) adsorbed over time (minutes) ([2]; Example 7, PAN M100, prime quantity 316,000 mcg, 20 min): 313,065 mcg
Quantity (mcg nafamostat free base) adsorbed over time (minutes), Avg. ([2]; Example 7, PAN M100, prime quantity 316,000 mcg): 292,003 mcg
Time in which the change in concentration is complete ([2]; non-PAN filter (PAES)): ≤ 5 min
Time in which the change in concentration is complete ([2]; non-PAN filter (PES)): ≤ 5 min
Time in which the change in concentration is complete ([2]; non-PAN filter (PS)): ≤ 5 min
Change in concentration in the PAN filters ([2]; within the first 5 minutes): 80%
Change in concentration in the PAN filters ([2]; within the first 10 minutes): 95%
Change in concentration in the PAN filters ([2]; within the first 15 minutes): 99%
Change in concentration in the PAN filters ([2]; within the first 20 minutes): 99.5%
Amount of Nafamostat Remaining as a Ratio of the Starting Concentration at Time 0 ([3]; Example 8, Solution A 632 mg, 0 min): 99.2%
Amount of Nafamostat Remaining as a Ratio of the Starting Concentration at Time 0 ([3]; Example 8, Solution A 632 mg, 5 min): 8.5%
Amount of Nafamostat Remaining as a Ratio of the Starting Concentration at Time 0 ([3]; Example 8, Solution A 632 mg, 10 min): 0.8%
Amount of Nafamostat Remaining as a Ratio of the Starting Concentration at Time 0 ([3]; Example 8, Solution A 632 mg, 20 min): 0.0%
Amount of Nafamostat Remaining as a Ratio of the Starting Concentration at Time 0 ([3]; Example 8, Solution B-1, added 632 mg, 0 min): 100.0%
Amount of Nafamostat Remaining as a Ratio of the Starting Concentration at Time 0 ([3]; Example 8, Solution B-1, added 632 mg, 5 min): 14.6%
Amount of Nafamostat Remaining as a Ratio of the Starting Concentration at Time 0 ([3]; Example 8, Solution B-1, added 632 mg, 10 min): 6.2%
Amount of Nafamostat Remaining as a Ratio of the Starting Concentration at Time 0 ([3]; Example 8, Solution B-1, added 632 mg, 20 min): 3.1%
Amount of Nafamostat Remaining as a Ratio of the Starting Concentration at Time 0 ([3]; Example 8, Solution B-2, added 632 mg, 0 min): 100.0%
Amount of Nafamostat Remaining as a Ratio of the Starting Concentration at Time 0 ([3]; Example 8, Solution B-2, added 632 mg, 5 min): 20.0%
Amount of Nafamostat Remaining as a Ratio of the Starting Concentration at Time 0 ([3]; Example 8, Solution B-2, added 632 mg, 10 min): 14.6%
Amount of Nafamostat Remaining as a Ratio of the Starting Concentration at Time 0 ([3]; Example 8, Solution B-2, added 632 mg, 20 min): 10.8%
Amount of Nafamostat Remaining as a Ratio of the Starting Concentration at Time 0 ([3]; Example 8, Solution B-3, added 379 mg, 0 min): 100.0%
Amount of Nafamostat Remaining as a Ratio of the Starting Concentration at Time 0 ([3]; Example 8, Solution B-3, added 379 mg, 5 min): 20.8%
Amount of Nafamostat Remaining as a Ratio of the Starting Concentration at Time 0 ([3]; Example 8, Solution B-3, added 379 mg, 10 min): 19.2%
Amount of Nafamostat Remaining as a Ratio of the Starting Concentration at Time 0 ([3]; Example 8, Solution B-3, added 379 mg, 20 min): 17.7%
Saturation of the PAN filter with nafamostat ([3]; total quantity of 2275 milligrams delivered): cannot be saturated
